SMILES strings stand for the structures.

The target of experiment [1] is PTGER2 (EP2) (Homo sapiens (Human), UniProt P43116). In words: hEP2 b-arrestin assay (PathHunter HEK 293 PTGER2 b-arrestin cells). The format is cell-based. Conditions: antagonistic activity, beta-arrestin assay; read-out: hEP2 b-arr IC50. How it is done: Plate is pre-incubated 15 minutes at 37° C. Then five microliters of PGE2 (final conc. 5 μM) are transferred into the assay plate. Plate is incubated 120 minutes at 37° C.
(each concentration is measured in duplicate)

Experiment [2] has as its target PTGER4 (EP4) (Homo sapiens (Human), UniProt P35408). In words: cell-based.

Sequence of PTGER4 (EP4) (P35408 whole entry): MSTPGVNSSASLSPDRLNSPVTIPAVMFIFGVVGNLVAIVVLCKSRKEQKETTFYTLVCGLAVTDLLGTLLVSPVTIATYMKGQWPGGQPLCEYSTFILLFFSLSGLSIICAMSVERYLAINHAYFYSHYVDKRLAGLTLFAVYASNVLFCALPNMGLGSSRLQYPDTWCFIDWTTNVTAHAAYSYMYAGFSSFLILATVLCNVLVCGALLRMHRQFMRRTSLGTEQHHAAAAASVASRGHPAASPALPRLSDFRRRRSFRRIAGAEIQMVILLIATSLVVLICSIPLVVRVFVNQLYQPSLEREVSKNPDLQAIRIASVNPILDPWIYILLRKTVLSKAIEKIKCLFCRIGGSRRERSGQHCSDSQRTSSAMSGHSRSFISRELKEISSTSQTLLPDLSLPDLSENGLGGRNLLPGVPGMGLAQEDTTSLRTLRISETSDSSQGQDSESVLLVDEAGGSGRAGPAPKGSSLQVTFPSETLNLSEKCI
Sequence of PTGER2 (EP2) (P43116 whole entry): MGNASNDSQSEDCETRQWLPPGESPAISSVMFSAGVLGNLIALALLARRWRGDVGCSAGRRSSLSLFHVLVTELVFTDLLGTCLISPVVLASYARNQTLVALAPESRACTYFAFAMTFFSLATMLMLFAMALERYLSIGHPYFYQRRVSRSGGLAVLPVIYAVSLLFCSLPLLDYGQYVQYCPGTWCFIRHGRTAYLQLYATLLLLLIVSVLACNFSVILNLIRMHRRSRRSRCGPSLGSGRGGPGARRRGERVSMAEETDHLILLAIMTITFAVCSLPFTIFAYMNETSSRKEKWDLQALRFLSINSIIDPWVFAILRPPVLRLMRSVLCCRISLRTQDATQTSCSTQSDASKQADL

Regarding `CCSc1cc(-c2cc(NCCc3cc(F)c4sccc4c3)ncn2)ccc1C(=O)O` [Example 533, 2-Ethylsulfanyl-4-{6-[2-(7-fluoro-benzo[b]thiophen-5-yl)-ethylamino]-pyrimidin-4-yl}-benzoic acid], the IC50 in experiment [1] was determined as 211 nM; in experiment [2], 53 nM.
For `Cc1c(CCNc2cc(-c3ccc(CC(=O)O)c(OC(F)(F)F)c3)ncn2)ccc2c1OCCO2` [Example 509, (4-{6-[2-(5-Methyl-2,3-dihydro-benzo[1,4]dioxin-6-yl)-ethylamino]-pyrimidin-4-yl}-2-trifluoromethoxy-phenyl)-acetic acid], the IC50 turned out to be 29 nM in experiment [1] and 356 nM in experiment [2].
The corresponding values for `CCCc1cc(-c2cc(NCCc3ccc4c(c3C)OCCO4)ncn2)ccc1CC(=O)O` [Example 504, (4-{6-[2-(5-Methyl-2,3-dihydro-benzo[1,4]dioxin-6-yl)-ethylamino]-pyrimidin-4-yl}-2-propyl-phenyl)-acetic acid] are 108 nM and 167 nM.
The corresponding values for `COc1cc2c(cc1CCNc1cc(-c3ccc(CC(=O)O)c(OC)c3)ncn1)OCCO2` [Example 383, (2-Methoxy-4-{6-[2-(7-methoxy-2,3-dihydro-benzo[1,4]dioxin-6-yl)-ethylamino]-pyrimidin-4-yl}-phenyl)-acetic acid] are 177 nM and 194 nM.
In the case of `O=C(O)c1ccc(-c2cc(NCCc3cc(F)c4sccc4c3)ncn2)c2cc[nH]c12` [Example 558, 4-{6-[2-(7-Fluoro-benzo[b]thiophen-5-yl)-ethylamino]-pyrimidin-4-yl}-1H-indole-7-carboxylic acid], the results for the IC50 in experiment [1] and in experiment [2] were 684 nM and 539 nM, respectively.
For the compound `CCOc1cc(-c2cc(NCCc3c(OC)cc4c(c3C)OCCO4)ncn2)ccc1CC(=O)O` [Example 399, (2-Ethoxy-4-{6-[2-(7-methoxy-5-methyl-2,3-dihydro-benzo[1,4]dioxin-6-yl)-ethylamino]-pyrimidin-4-yl}-phenyl)-acetic acid], the concentration for half-maximal inhibition (IC50) stood at 10 nM in experiment [1] and 30 nM in experiment [2].
On to `COc1cc(-c2cc(NCCc3ccc4c(c3C)OCCO4)ncn2)ccc1OCCC(=O)O` [Example 507, 3-(2-Methoxy-4-{6-[2-(5-methyl-2,3-dihydro-benzo[1,4]dioxin-6-yl)-ethylamino]-pyrimidin-4-yl}-phenoxy)-propionic acid], for which the half-inhibitory concentration (IC50) stood at 170 nM in experiment [1] and 209 nM in experiment [2].
Turning to `COc1cc2c(cc1CCNc1cc(-c3ccc(CC(=O)O)c(OC(F)F)c3)ncn1)OCCO2` [Example 522, (2-Difluoromethoxy-4-{6-[2-(7-methoxy-2,3-dihydro-benzo[1,4]dioxin-6-yl)-ethylamino]-pyrimidin-4-yl}-phenyl)-acetic acid], the concentration for half-maximal inhibition (IC50) in experiment [1] worked out at 131 nM; in experiment [2] it was 204 nM.
On the same counts, the results for `CCc1cc(-c2cc(NCCc3cc(F)c4sccc4c3)ncn2)cc(Cl)c1CC(=O)O` [Example 541, (2-Chloro-6-ethyl-4-{6-[2-(7-fluoro-benzo[b]thiophen-5-yl)-ethylamino]-pyrimidin-4-yl}-phenyl)-acetic acid] are 604 nM and 88 nM.
The corresponding values for `CCOc1cc(-c2cc(NCCc3cc(F)c4sccc4c3)ncn2)ccc1C(=O)O` [Example 361, 2-Ethoxy-4-{6-[2-(7-fluoro-benzo[b]thiophen-5-yl)-ethylamino]-pyrimidin-4-yl}-benzoic acid] are 187 nM and 116 nM.
The corresponding values for `COc1cc(-c2cc(NCCc3cc(F)c4sccc4c3)ncn2)ccc1-c1cc(O)no1` [Example 553, 5-(4-{6-[2-(7-Fluoro-benzo[b]thiophen-5-yl)-ethylamino]-pyrimidin-4-yl}-2-methoxy-phenyl)-isoxazol-3-ol] are 302 nM and 80 nM.
In the case of `CCCc1cc(-c2cc(NCCc3cc(F)c4sccc4c3)ncn2)sc1CC(=O)O` [Example 556, (5-{6-[2-(7-Fluoro-benzo[b]thiophen-5-yl)-ethylamino]-pyrimidin-4-yl}-3-propyl-thiophen-2-yl)-acetic acid], the figures for the half-maximal inhibitory concentration (IC50) in experiment [1] and in experiment [2] were 246 nM and 19 nM, respectively.
The corresponding values for `CSc1cc(-c2cc(NCCc3ccc4scc(Cl)c4c3)ncn2)ccc1C(=O)O` [Example 429, 4-{6-[2-(3-Chloro-benzo[b]thiophen-5-yl)-ethylamino]-pyrimidin-4-yl}-2-methylsulfanyl-benzoic acid] are 52 nM and 60 nM.
Regarding `CCOc1cc(-c2cc(NCCc3cc4c(cc3OC(F)F)OCCO4)ncn2)sc1C(=O)O` [Example 433, 5-{6-[2-(7-Difluoromethoxy-2,3-dihydro-benzo[1,4]dioxin-6-yl)-ethylamino}-pyrimidin-4-yl}-3-ethoxy-thiophene-2-carboxylic acid], the IC50 in experiment [1] came to 30 nM; in experiment [2], 19 nM.
As to `CCOc1cc2c(cc1CCNc1cc(-c3cc(F)c(CC(=O)O)c(OCC)c3)ncn1)OCCO2` [Example 403, (2-Ethoxy-4-{6-[2-(7-ethoxy-2,3-dihydro-benzo[1,4]dioxin-6-yl)-ethylamino]-pyrimidin-4-yl}-6-fluoro-phenyl)-acetic acid], the IC50 came to 57 nM in experiment [1] and 65 nM in experiment [2].
On the same counts, the results for `COc1cc(-c2cc(NCCc3ccc4sccc4c3F)ncn2)ccc1CC(=O)O` [Example 382, (4-{6-[2-(4-Fluoro-benzo[b]thiophen-5-yl)-ethylamino]-pyrimidin-4-yl}-2-methoxy-phenyl)-acetic acid] are 160 nM and 81 nM.
On the same counts, the results for `CCCn1cc(-c2cc(NCCc3cc(F)c4sccc4c3)ncn2)cc1C(=O)O` [Example 548, 4-{6-[2-(7-Fluoro-benzo[b]thiophen-5-yl)-ethylamino]-pyrimidin-4-yl}-1-propyl-1H-pyrrole-2-carboxylic acid] are 933 nM and 295 nM.
Take `CCOc1cc(-c2cc(NCCc3cc(F)c4sccc4c3)ncn2)ccc1C(N)=O` [Example 461, 2-Ethoxy-4-{6-[2-(7-fluoro-benzo[b]thiophen-5-yl)-ethylamino]-pyrimidin-4-yl}benzamide]: the IC50 in experiment [1] was found to be 231 nM; in experiment [2] it was 121 nM.
The corresponding values for `COc1cc(-c2cc(NCCc3cc(F)c4sccc4c3)ncn2)ccc1OCCC(=O)O` [Example 438, 3-(4-{6-[2-(7-Fluoro-benzo[b]thiophen-5-yl)-ethylamino]-pyrimidin-4-yl}-2-methoxy-phenoxy)-propionic acid] are 519 nM and 49 nM.
On the same counts, the results for `COc1cc2c(c(C)c1CCNc1cc(-c3ccc(CC(=O)O)c(OC(F)(F)F)c3)ncn1)OCCO2` [Example 428, (4-{6-[2-(7-Methoxy-5-methyl-2,3-dihydro-benzo[1,4]dioxin-6-yl)-ethylamino]-pyrimidin-4-yl}-2-trifluoromethoxy-phenyl)-acetic acid] are 7 nM and 41 nM.
The corresponding values for `CCCc1cc(-c2cc(NCCc3cc4c(cc3OC)OCCO4)ncn2)ccc1C(C)C(=O)O` (racemic) [Example 401, rac-2-(4-{6-[2-(7-Methoxy-2,3-dihydro-benzo[1,4]dioxin-6-yl)-ethylamino]-pyrimidin-4-yl]-2-propyl-phenyl)-propionic acid] are 331 nM and 114 nM.
Take `CCOc1cc2c(cc1CCNc1cc(-c3ccc(C(=O)O)c(CC)c3)ncn1)OCCO2` [Example 516, 4-{6-[2-(7-Ethoxy-2,3-dihydro-benzo[1,4]dioxin-6-yl)-ethylamino]-pyrimidin-4-yl}-2-ethyl-benzoic acid]: the IC50 amounted to 23 nM in experiment [1] and 930 nM in experiment [2].
The corresponding values for `CCc1cc(-c2cc(NCCc3ccc4sccc4c3F)ncn2)ccc1CC(=O)O` [Example 514, (2-Ethyl-4-{6-[2-(4-fluoro-benzo[b]thiophen-5-yl)-ethylamino]-pyrimidin-4-yl}-phenyl)-acetic acid] are 262 nM and 112 nM.
The corresponding values for `CCCc1cc(-c2cc(NCCc3cc(F)c4sccc4c3)ncn2)ccc1C(=O)O` [Example 389, 4-{6-[2-(7-Fluoro-benzo[b]thiophen-5-yl)-ethylamino]-pyrimidin-4-yl}-2-propyl-benzoic acid] are 51 nM and 25 nM.
The corresponding values for `Cc1c(CCNc2cc(-c3ccc(CC(=O)O)c(OC(F)F)c3)ncn2)ccc2c1OCCO2` [Example 511, (2-Difluoromethoxy-4-{6-[2-(5-methyl-2,3-dihydro-benzo[1,4]dioxin-6-yl)-ethylamino]-pyrimidin-4-yl}-phenyl)-acetic acid] are 304 nM and 423 nM.
Consider `O=C(O)c1cccc2[nH]c(-c3cc(NCCc4cc(F)c5sccc5c4)ncn3)cc12` [Example 531, 2-{6-[2-(7-Fluoro-benzo[b]thiophen-5-yl)-ethylamino]-pyrimidin-4-yl}-1H-indole-4-carboxylic acid], for which the figures for the half-inhibitory concentration (IC50) in experiment [1] and in experiment [2] were 624 nM and 110 nM, respectively.
The corresponding values for `COc1cc2c(c(C)c1CCNc1cc(-c3ccc(C(=O)O)c(SC)c3)ncn1)OCCO2` [Example 400, 4-{6-[2-(7-Methoxy-5-methyl-2,3-dihydro-benzo[1,4]dioxin-6-yl)-ethylamino]-pyrimidin-4-yl}-2-methylsulfanyl-benzoic acid] are 2 nM and 44 nM.
Regarding `CCOc1cc2c(cc1CCNc1cc(-c3ccc(CC(=O)O)c(OC(C)C)c3)ncn1)OCCO2` [Example 425, (4-{6-[2-(7-Ethoxy-2,3-dihydro-benzo[1,4]dioxin-6-yl)-ethylamino]-pyrimidin-4-yl}-2-isopropoxy-phenyl)-acetic acid], the half-maximal inhibitory concentration (IC50) in experiment [1] was found to be 65 nM; in experiment [2], 152 nM.
The corresponding values for `COC(=O)c1ccc(-c2cc(NCCc3cc(F)c4sccc4c3)ncn2)cc1OC1CC1` [Example 538, 2-Cyclopropoxy-4-{6-[2-(7-fluoro-benzo[b]thiophen-5-yl)-ethylamino]-pyrimidin-4-yl}-benzoic acid methyl ester] are 685 nM and 99 nM.
